Values after ≈ are worked out from the molar mass of the structure shown. Non-standard residues stand in square brackets, D forms with d. Residues, ends and D or L forms follow the SMILES beside them. ξ: configuration not given here. ξAhp(2) = CCCCCC(N)C(=O)O
Legend:
E. coli ATCC 25922 [1] = test: Cytoplasmic membrane permeability, ONPG hydrolysis; assay type: cell-based, Escherichia coli; conditions: within 1800 s
From the text: The ONPG hydrolysis assay was employed to determine the effects of nano‐short peptides on permeability of E. coli ATCC 25922 cytoplasmic membranes. The detailed experimental procedures followed the previously published methodology.^[ [30] ^]

S. typhimurium 14028 = assay type: cell-based, Salmonella typhimurium
Protocol: (§1) The MIC values of the nano‐short peptides were determined according to standard protocols.^[ [63] ^] Bacterial strains were revived from cryopreservation and cultured in Mueller–Hinton broth (MHB) to logarithmic growth phase, then diluted to a final density of 0.5–1 × 10⁶ CFU mL^−1. Serial dilutions of the nano‐short peptides were prepared in 0.2% bovine serum albumin (BSA) using a 96‐well plate format. Equal volumes of peptide solutions and bacterial suspensions were combined and incubated at 37 °C for 20–22 h. Bacterial growth was assessed by measuring absorbance at 492 nm, with MHB alone (negative control) and untreated bacterial suspension (positive control) included for reference.

S. typhimurium 7731 = assay type: cell-based, Salmonella typhimurium
Protocol: as §1

E. coli = test: In vivo peritonitis-sepsis model; parameters: species or system mouse; conditions: 14 h, n = 8
Protocol: The mice used in the peritonitis‐sepsis model were consistent with those employed in the in vivo toxicity assessment. Twenty‐four mice were randomly divided into three groups after a 3‐day pre‐feeding period. The mice in the control group received intraperitoneal injections of 100 µL of saline, followed by an additional 100 µL of saline 1 h later. The mice in the other two groups were administered intraperitoneal injections of 100 µL of a saline‐diluted E. coli suspension (OD600 = 0.6), and subsequently received either 100 µL of saline (E. coli‐infected group) or 10 mg kg^−1 of N4(N4‐treated group) 1 h later. 14 h post‐infection, the mice were euthanized via ether inhalation anesthesia, and blood samples were collected from the orbital vein for the analysis of inflammatory factors (IL‐1β, IL‐6, TNF‐α, and IL‐10).^[ [71] ^] In addition, peritoneal fluid was aseptically collected via peritoneal lavage with sterile saline. The liver, spleen, and kidneys were harvested, weighed, and homogenized. Homogenized samples were plated on Mueller‐Hinton agar (MHA) solid medium for overnight incubation, and bacterial load was quantified the next day. Sections of the liver, spleen, and kidneys were obtained for histological analysis employing H&E staining. Besides, the spleens were specifically selected for immunofluorescence analysis to assess the expression levels of IL‐10, TNF‐α, CD206, and CD86.

S. pullorum C7913 = assay type: cell-based
Protocol: as §1

S. aureus ATCC 29213 = test: Live/dead staining, PI and SYTO 9; assay type: cell-based, Staphylococcus aureus
From the text: Finally, a fluorescence microscope (EVOS FL Auto, Massachusetts, USA) was used to observe the fluorescence images of the bacteria under different background colors and representative pictures were taken.

[2] = LPS binding, BODIPY-TR-cadaverine displacement; conditions: BC displacement, polymyxin B 10 µg mL^−1 = 100%, n = 3
Protocol: (§2) The binding ability of nano‐short peptides to LPS and LTA was evaluated using a BODIPY‐TR‐cadaverine (BC) displacement assay.^[ [59] ^] Test solutions containing LPS or LTA (50 µg mL^−1) were pre‐incubated with BC dye (5 µg mL^−1) for 4 h in the dark. Peptide solutions at varying concentrations were then mixed with the LPS or LTA, polymyxin B (final concentration 10 µg mL^−1) was used as a positive control, and LPS or LTA mixed with dye solution was used as a negative control. The fluorescence intensity (excitation λ = 580 nm, emission λ = 620 nm) was measured. %ΔF (au) = [(F treated – F negative control)/(F positive control – F negative control)] × 100%.

E. coli ATCC 25922 [3] = test: Outer membrane permeability, NPN; assay type: cell-based, Escherichia coli; conditions: n = 3
Protocol: The NPN fluorescent probe was used to assess the permeability of the outer membrane.^[ [29] ^] A logarithmic phase culture of E. coli ATCC 25922 bacterial solution was diluted to OD600 = 0.2 in a 5 × 10^−3 M HEPES buffer (pH = 7.4 with 5 × 10^−3 M glucose). Following the addition of NPN (final concentration: 10 × 10^−6 M), the mixture was incubated for 30 min in the dark. Subsequently, the bacterial suspension was mixed with an equal volume of nano‐short peptides solution at different concentrations. Polymyxin B (10 µg mL^−1) was used as a positive control, while an untreated bacterial dilution served as the negative control. Fluorescence intensity was measured (excitation λ = 350 nm, emission λ = 420 nm) using a microplate reader. The percentage of outer membrane permeability was calculated as: Permeability% = [(F treated – F negative control)/(F positive control – F negative control)] × 100%.

[4] = LTA binding, BODIPY-TR-cadaverine displacement; conditions: BC displacement, n = 3
Protocol: as §2

E. coli 078 = assay type: cell-based, Escherichia coli
Protocol: as §1

E. coli UB1005 = assay type: cell-based, Escherichia coli
Protocol: as §1

E. coli 25922 = assay type: cell-based, Escherichia coli
Protocol: as §1

[5] = N4 10 mg kg^−1 i.p., vs infected group, p < 0.05

| Structure (SMILES) | MIC, S. typhimurium 14028 (S. typhimurium 14028) | MIC, S. typhimurium 7731 (S. typhimurium 7731) | MIC, S. pullorum C7913 (S. pullorum C7913) | LPS binding, % of polymyxin B's binding efficiency ([2]; 8 × 10^−6 M) | LPS binding, % of polymyxin B's binding efficiency ([2]; 16 × 10^−6 M) | outer membrane disruption compared to polymyxin B (E. coli ATCC 25922 [3]; 8 × 10^−6 M) | outer membrane disruption compared to polymyxin B (E. coli ATCC 25922 [3]; 16 × 10^−6 M) | LTA binding capacity, % of the antibiotic control ([4]; 8 × 10^−6 M) | LTA binding capacity, % of the antibiotic control ([4]; 16 × 10^−6 M) | MIC, E. coli 078 (E. coli 078) | MIC, E. coli UB1005 (E. coli UB1005) | MIC, E. coli 25922 (E. coli 25922) | further results |
| --- | --- | --- | --- | --- | --- | --- | --- | --- | --- | --- | --- | --- | --- |
| N=C(N)NCCC[C@H](NC(=O)[C@@H](CCCNC(=N)N)NC(=O)[C@H](Cc1cccc2ccccc12)NC(=O)[C@H](Cc1cccc2ccccc12)NC(=O)[C@H](Cc1cccc2ccccc12)NC(=O)[C@@H](N)Cc1cccc2ccccc12)C(=O)N[C@@H](CCCNC(=N)N)C(=O)N1CCC[C@H]1C(=O)O (stereo in doubt) [Peptide N4] | 8 µM (≈ 11 µg/mL) | 8 µM (≈ 11 µg/mL) | 4 µM (≈ 5.49 µg/mL) | 60.67% | 99.47% | 92.06% | 108.41% | 65.60% | 73.08% | 8 µM (≈ 11 µg/mL) | 4 µM (≈ 5.49 µg/mL) | 8 µM (≈ 11 µg/mL) | increase in absorbance at 420 nm (ONPG hydrolysis) (E. coli ATCC 25922 [1]; 8 μM): approximately 2 fold; increase in absorbance at 420 nm (ONPG hydrolysis) (E. coli ATCC 25922 [1]; 16 μM): ~5 fold; bacterial load, kidney (E. coli; E. coli peritonitis-sepsis, N4 10 mg kg^−1 i.p. 1 h after infection, infected group 6.62): 5.96 log10 CFU g^−1; bacterial load, liver (E. coli; E. coli peritonitis-sepsis, N4 10 mg kg^−1 i.p. 1 h after infection, infected group 6.87): 6.07 log10 CFU g^−1; bacterial load, spleen (E. coli; E. coli peritonitis-sepsis, N4 10 mg kg^−1 i.p. 1 h after infection, infected group 6.97): 6.28 log10 CFU g^−1; bacterial load, peritoneum (E. coli; E. coli peritonitis-sepsis, N4 10 mg kg^−1 i.p. 1 h after infection, infected group 7.48): 6.37 log10 CFU; serum levels of anti-inflammatory cytokine IL-10 (E. coli; [5]): increased; serum levels of pro-inflammatory cytokines (IL-1β, IL-6, TNF-α) (E. coli; [5]): significant decreased; red (PI)/green (SYTO 9) fluorescence overlap rate (S. aureus ATCC 29213; 16 × 10^−6 M N4, S. aureus ATCC 29213, ImageJ): 90.74%; red (PI)/green (SYTO 9) fluorescence overlap rate (S. aureus ATCC 29213; 256 × 10^−6 M N4, S. aureus ATCC 29213, ImageJ): 98.65% |
| CCCCCC(N)C(=O)NC(CCCCC)C(=O)NC(CCCCC)C(=O)NC(CCCCC)C(=O)N[C@H](CCCNC(=N)N)C(=O)N[C@@H](CCCNC(=N)N)C(=O)N[C@@H](CCCNC(=N)N)C(=O)N1CCC[C@H]1C(=O)O (stereo partly shown) [Peptide B4] (H-[ξAhp(2)][ξAhp(2)][ξAhp(2)][ξAhp(2)][dR]RRP-OH; N-terminus assumed) | 128 µM (≈ 140 µg/mL) | 32 µM (≈ 35 µg/mL) | 16 µM (≈ 17.5 µg/mL) | 40.51% | 54.24% | 37.37% | 57.94% | 85.77% | 96.79% | 16 µM (≈ 17.5 µg/mL) | 8 µM (≈ 8.74 µg/mL) | 16 µM (≈ 17.5 µg/mL) | – |
